Experimental data taken from PubChem BioAssay AID248 (DTP/NCI, 2004).
Values joined by “and” are separate entries in the source; they are usually repeats but may differ in a detail not shown here. Equal entries are not always repeated. Inconclusive results and toxic doses are left out.

Tested on: L1210 leukemia ip in BDF1 mice, survival T/C
Test: NCI In Vivo Anticancer Drug Screen. Data for tumor model L1210 Leukemia (intraperitoneal) in B6D2F1 (BDF1) mice
Conditions: endpoint: mean survival time, higher = longer survival
In short: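 Ratio derived from survival: compound-dosed mice over vehicle-dosed mice, all bearing a transplantable tumor.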

[1] = dose: 100.0 mg/kg/injection, schedule: Q01DX001 (ip), vehicle: carboxymethylcellulose (CMC)
[2] = dose: 200.0 mg/kg/injection, schedule: Q01DX001 (ip), vehicle: carboxymethylcellulose (CMC)
[3] = dose: 400.0 mg/kg/injection, schedule: Q01DX001 (ip), vehicle: carboxymethylcellulose (CMC)
[4] = dose: 100.0 mg/kg/injection, schedule: Q04DX003 (ip), vehicle: saline with Tween-80
[5] = dose: 200.0 mg/kg/injection, schedule: Q04DX003 (ip), vehicle: saline with Tween-80
[6] = dose: 100.0 mg/kg/injection, schedule: Q04DX003 (ip), vehicle: Klucel (hydroxypropylcellulose) (HPC)
[7] = dose: 200.0 mg/kg/injection, schedule: Q04DX003 (ip), vehicle: Klucel (hydroxypropylcellulose) (HPC)
[8] = dose: 100.0 mg/kg/injection, schedule: Q01DX001 (ip), vehicle: saline
[9] = dose: 200.0 mg/kg/injection, schedule: Q01DX001 (ip), vehicle: saline
[10] = dose: 400.0 mg/kg/injection, schedule: Q01DX001 (ip), vehicle: saline
[11] = dose: 200.0 mg/kg/injection, schedule: Q01DX009 (ip), vehicle: saline
[12] = dose: 400.0 mg/kg/injection, schedule: Q01DX009 (ip), vehicle: saline

Clc1ccc(CSc2ncc(Br)c(N3CC3)n2)c(Cl)c1
T/C (dose: 88.0 mg/kg/injection, schedule: Q01DX Z (ip), vehicle: methylcellulose (MC)): 89 % of control | T/C (dose: 133.0 mg/kg/injection, schedule: Q01DX Z (ip), vehicle: methylcellulose (MC)): 94 % of control

CCSc1cccc(C(=O)O)c1
T/C [1]: 102 % of control | T/C [2]: 94 % of control | T/C [3]: 100 % of control

CC1(C)N=C(N)N=C(N)N1c1ccc(OCCCNS(=O)(=O)c2ccc(S(=O)(=O)F)cc2)c(Cl)c1
T/C (dose: 37.5 mg/kg/injection, schedule: Q04DX003 (ip), vehicle: saline with Tween-80): 103 % of control | T/C (dose: 75.0 mg/kg/injection, schedule: Q04DX003 (ip), vehicle: saline with Tween-80): 108 % of control | T/C (dose: 150.0 mg/kg/injection, schedule: Q04DX003 (ip), vehicle: saline with Tween-80): 107 % of control

CN(C)C1c2cc(Cl)ccc2-c2c(Cl)cc(Cl)cc21 (configuration not stated)
T/C (dose: 50.0 mg/kg/injection, schedule: Q01DX001 (ip), vehicle: carboxymethylcellulose (CMC)): 100 % of control | T/C [1]: 102 % of control | T/C [2]: 100 % of control | T/C [3]: 105 % of control

FC(F)(F)c1nc2cccc3c2n1CCC3
T/C (dose: 50.0 mg/kg/injection, schedule: Q01DX009 (ip), vehicle: saline with Tween-80): 93 % of control | T/C (dose: 100.0 mg/kg/injection, schedule: Q01DX009 (ip), vehicle: saline with Tween-80): 87 % of control | T/C [4]: 97 % of control | T/C (dose: 200.0 mg/kg/injection, schedule: Q01DX009 (ip), vehicle: saline with Tween-80): 101 % of control | T/C [5]: 96 % of control

CC(C)(NC(=O)c1ccccc1)C(=O)O
T/C (dose: 50.0 mg/kg/injection, schedule: Q04DX003 (ip), vehicle: Klucel (hydroxypropylcellulose) (HPC)): 106 % of control | T/C [6]: 96 % of control | T/C [7]: 88 % of control

CC1=NNC(=O)C1(Cl)c1ccc(N)cc1 (configuration not stated)
T/C [8]: 102 % of control | T/C [9]: 100 % of control | T/C [10]: 100 % of control

Nc1nc(=O)n(C2OC(CO)C(O)C2O)cc1Cl (configuration not stated)
T/C (dose: 200.0 mg/kg/injection, schedule: Q01DX005 (ip), vehicle: saline): 150 % of control | T/C [11]: 160 % of control | T/C [12]: 176 % of control

CN(C)CCN(Cc1ccccc1)c1ccccn1
T/C (dose: 75.0 mg/kg/injection, schedule: Q01DX001 (ip), vehicle: carboxymethylcellulose (CMC)): 100 % of control | T/C (dose: 150.0 mg/kg/injection, schedule: Q01DX001 (ip), vehicle: carboxymethylcellulose (CMC)): 95 % of control

Cc1nc(N)[nH]c(=O)c1N=Nc1ccc(S(=O)(=O)O)cc1
T/C (dose: 50.0 mg/kg/injection, schedule: Q01DX001 (ip), vehicle: saline): 98 % of control | T/C [8]: 98 % of control | T/C [9]: 104 % of control

CS(=O)(=O)c1ccc(C(=N)N)cc1
T/C (dose: 100.0 mg/kg/injection, schedule: Q01DX009 (ip), vehicle: saline): 93 % of control | T/C [11]: 97 % of control | T/C [12]: 95 % of control

c1ccc(N(CC2CO2)CC2CO2)cc1 (configuration not stated)
T/C [4]: 106 % of control | T/C [5]: 104 % of control | T/C (dose: 400.0 mg/kg/injection, schedule: Q04DX003 (ip), vehicle: saline with Tween-80): 112 % of control

CC(C)=CCC(CCN1CCCCC1)(C(N)=O)c1cccc2ccccc12 (configuration not stated)
T/C (dose: 1.5 mg/kg/injection, schedule: Q01DX009 (ip), vehicle: Klucel (hydroxypropylcellulose) (HPC)): 104 % of control | T/C (dose: 3.12 mg/kg/injection, schedule: Q01DX009 (ip), vehicle: Klucel (hydroxypropylcellulose) (HPC)): 104 % of control | T/C (dose: 6.25 mg/kg/injection, schedule: Q01DX009 (ip), vehicle: Klucel (hydroxypropylcellulose) (HPC)): 95 % of control | T/C (dose: 6.25 mg/kg/injection, schedule: Q04DX002 (ip), vehicle: Klucel (hydroxypropylcellulose) (HPC)): 97 % of control | T/C (dose: 12.5 mg/kg/injection, schedule: Q04DX002 (ip), vehicle: Klucel (hydroxypropylcellulose) (HPC)): 97 % of control | T/C (dose: 25.0 mg/kg/injection, schedule: Q04DX002 (ip), vehicle: Klucel (hydroxypropylcellulose) (HPC)): 103 % of control

COc1ccccc1OC(=O)Nc1ccc(S(=O)(=O)NC2CCCCC2)cc1
T/C [8]: 100 % of control | T/C [9]: 91 % of control | T/C [10]: 94 % of control

CC/C=C/c1cccc(OC)c1
T/C (dose: 100.0 mg/kg/injection, schedule: Q01DX009 (ip), vehicle: Klucel (hydroxypropylcellulose) (HPC)): 102 % of control | T/C [6]: 105 % of control | T/C (dose: 200.0 mg/kg/injection, schedule: Q01DX009 (ip), vehicle: Klucel (hydroxypropylcellulose) (HPC)): 96 % of control | T/C [7]: 110 % of control | T/C (dose: 400.0 mg/kg/injection, schedule: Q01DX009 (ip), vehicle: Klucel (hydroxypropylcellulose) (HPC)): 95 % of control | T/C (dose: 400.0 mg/kg/injection, schedule: Q04DX003 (ip), vehicle: Klucel (hydroxypropylcellulose) (HPC)): 96 % of control

CCOC(=O)/C(C(N)=O)=C(/C)C=C(C)C
T/C (dose: 10.0 mg/kg/injection, schedule: Q01DX001 (ip), vehicle: acetone): 101 % of control | T/C (dose: 20.0 mg/kg/injection, schedule: Q01DX001 (ip), vehicle: acetone): 100 % of control

C#C/C(=N\Nc1ccc([N+](=O)[O-])cc1[N+](=O)[O-])c1ccccc1
T/C (dose: 75.0 mg/kg/injection, schedule: Q04DX002 (ip), vehicle: saline with Tween-80): 91 % of control | T/C (dose: 150.0 mg/kg/injection, schedule: Q04DX002 (ip), vehicle: saline with Tween-80): 102 % of control | T/C (dose: 300.0 mg/kg/injection, schedule: Q04DX002 (ip), vehicle: saline with Tween-80): 88 % of control

CCCCn1cnc2c(=S)nc[nH]c21
T/C (dose: 5.0 mg/kg/injection, schedule: Q01DX Z (ip), vehicle: carboxymethylcellulose (CMC)): 98 % of control | T/C (dose: 8.0 mg/kg/injection, schedule: Q01DX Z (ip), vehicle: carboxymethylcellulose (CMC)): 103 % of control | T/C (dose: 10.0 mg/kg/injection, schedule: Q01DX Z (ip), vehicle: carboxymethylcellulose (CMC)): 102 % of control | T/C (dose: 16.0 mg/kg/injection, schedule: Q01DX Z (ip), vehicle: carboxymethylcellulose (CMC)): 103 % of control | T/C (dose: 16.0 mg/kg/injection, schedule: Q01DX Z (ip), vehicle: saline): 94 % of control | T/C (dose: 16.0 mg/kg/injection, schedule: Q01DX Z (oral), vehicle: carboxymethylcellulose (CMC)): 109 % of control | T/C (dose: 20.0 mg/kg/injection, schedule: Q01DX Z (ip), vehicle: carboxymethylcellulose (CMC)): 104 % of control | T/C (dose: 32.0 mg/kg/injection, schedule: Q01DX009 (ip), vehicle: saline): 101 % of control | T/C (dose: 32.0 mg/kg/injection, schedule: Q01DX Z (ip), vehicle: carboxymethylcellulose (CMC)): 120 % of control | T/C (dose: 32.0 mg/kg/injection, schedule: Q01DX Z (ip), vehicle: saline): 97 % of control | T/C (dose: 32.0 mg/kg/injection, schedule: Q01DX Z (oral), vehicle: carboxymethylcellulose (CMC)): 112 % of control | T/C (dose: 40.0 mg/kg/injection, schedule: Q01DX Z (ip), vehicle: carboxymethylcellulose (CMC)): 112 % of control | T/C (dose: 64.0 mg/kg/injection, schedule: Q01DX009 (ip), vehicle: saline): 115 % of control and 121 % of control | T/C (dose: 64.0 mg/kg/injection, schedule: Q01DX Z (ip), vehicle: saline): 123 % of control | T/C (dose: 64.0 mg/kg/injection, schedule: Q01DX Z (oral), vehicle: carboxymethylcellulose (CMC)): 117 % of control | T/C (dose: 86.0 mg/kg/injection, schedule: Q02DX010 (ip), vehicle: carboxymethylcellulose (CMC)): 117 % of control | T/C (dose: 88.0 mg/kg/injection, schedule: Q02DX010 (ip), vehicle: carboxymethylcellulose (CMC)): 116 % of control | T/C (dose: 100.0 mg/kg/injection, schedule: Q01DX015 (ip), vehicle: carboxymethylcellulose (CMC)): 178 % of control | T/C (dose: 160.0 mg/kg/injection, schedule: Q01DX015 (ip), vehicle: carboxymethylcellulose (CMC)): 152 % of control | T/C (dose: 225.0 mg/kg/injection, schedule: Q01DX015 (ip), vehicle: carboxymethylcellulose (CMC)): 124 % of control | T/C (dose: 240.0 mg/kg/injection, schedule: Q01DX015 (ip), vehicle: carboxymethylcellulose (CMC)): 116 % of control | T/C (dose: 256.0 mg/kg/injection, schedule: Q01DX009 (ip), vehicle: saline): 121 % of control | T/C (dose: 256.0 mg/kg/injection, schedule: Q01DX Z (ip), vehicle: saline): 100 % of control | T/C (dose: 320.0 mg/kg/injection, schedule: Q01DX015 (ip), vehicle: carboxymethylcellulose (CMC)): 92 % of control | T/C (dose: 335.0 mg/kg/injection, schedule: Q01DX015 (ip), vehicle: carboxymethylcellulose (CMC)): 98 % of control
